molecular target: human RIP1 kinase domain (2-375) (Homo sapiens (Human), UniProt Q13546); experiment: RIP1 kinase inhibition assay (biochemical, Transcreener ADP assay); conditions: tight-binding apparent inhibition constant (Ki app, Morrison equation); 50 nM enzyme, 50 uM ATP, 2 hours incubation, fluorescence polarization; read-out: RIP1 Ki
Procedure: Example 45: RIP1 Kinase Inhibition Assays (Biochemical Assay)
The compounds of the present invention were tested for their capacity to inhibit RIP1K activity as described below.
The ability of the receptor interacting protein kinase (RIPK1) to catalyze the hydrolysis of adenosine-5′-triphosphate (ATP) is monitored using the Transcreener ADP (adenosine-5′-diphosphate) assay (BellBrook Labs). Purified human RIP1 kinase domain (2-375) (50 nM) derived from a baculovirus-infected insect cell expression system is incubated with test compounds for 2 hours in 50 mM Hepes buffer (pH 7.5) containing 30 mM MgCl2, 1 mM dithiothreitol, 50 uM ATP, 0.002% Brij-35, and 0.5% dimethyl sulfoxide (DMSO). Reactions are quenched by the addition of 1× Bell Brooks Stop buffer B (20 mM Hepes (ph 7.5), 40 mM ethylenediaminetetraacetic acid and 0.02% Brij-35) containing an additional 12 mM EDTA and 55 ug/mL ADP2 antibody and 4 nM ADP-AlexaFluor® 633 tracer. The tracer bound to the antibody is displaced by the ADP generated during the RIP1K reaction, which causes a decrease in fluorescence polarization that is measured by laser excitation at 633 nm with a FP microplate reader M1000. Fractional activity was plotted against test article concentration. Using Genedata Screener software (Genedata; Basel, Switzerland), the data were fit to the tight-binding apparent inhibition constant (Ki^app) Morrison equation [Williams, J. W. and Morrison, J. F. (1979) The kinetics of reversible tight-binding inhibition. Methods Enzymol 63: 437-67]. The following equation was used to calculate fractional activity and Ki^app: […]
where [E]T and [I]T are the total concentrations of active enzyme and test article, respectively. […]

Chain of human RIP1 kinase domain (2-375) (Q13546 2-375): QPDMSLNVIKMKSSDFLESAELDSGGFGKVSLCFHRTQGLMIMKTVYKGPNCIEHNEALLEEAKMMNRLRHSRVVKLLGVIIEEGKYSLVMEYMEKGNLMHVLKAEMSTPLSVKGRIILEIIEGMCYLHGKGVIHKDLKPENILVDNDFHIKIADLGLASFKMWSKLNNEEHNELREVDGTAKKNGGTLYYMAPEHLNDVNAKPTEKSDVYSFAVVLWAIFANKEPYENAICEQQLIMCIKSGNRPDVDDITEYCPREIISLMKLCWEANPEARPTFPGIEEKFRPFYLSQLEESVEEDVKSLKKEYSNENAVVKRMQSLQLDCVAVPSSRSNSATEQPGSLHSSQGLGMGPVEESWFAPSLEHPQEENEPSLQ

| Ki | Structure (SMILES) |
| --- | --- |
| 22 nM | O=C(N[C@H]1CCc2cc(F)cc(F)c2NC1=O)c1nc2n(n1)C(c1ccccc1)CC2(F)F (stereo partly drawn) [Example #24, 7,7-difluoro-5-phenyl-N-[(3S)-7,9-difluoro-2-oxo-1,3,4,5-tetrahydro-1-benzazepin-3-yl]-5,6-dihydropyrrolo[1,2-b][1,2,4]triazole-2-carboxamide] |
| 33 nM | CN1C(=O)[C@@H](NC(=O)c2nc3n(n2)C(c2ccccc2)CC3(F)F)COc2ccccc21 (stereo partly drawn) [Example #25, 7,7-difluoro-5-phenyl-N-[(3S)-5-methyl-4-oxo-2,3-dihydro-1,5-benzoxazepin-3-yl]-5,6-dihydropyrrolo[1,2-b][1,2,4]triazole-2-carboxamide] |
| 12 nM | CN1C(=O)[C@@H](NC(=O)c2nc3n(n2)C(c2ccccc2)CC3F)COc2ccccc21 (stereo partly drawn) [Example #28, 7-fluoro-5-phenyl-N-[(3S)-5-methyl-4-oxo-2,3-dihydro-1,5-benzoxazepin-3-yl]-6,7-dihydro-5H-pyrrolo[1,2-b][1,2,4]triazole-2-carboxamide] |

Further lines, the molecule ahead of its results:

| Structure (SMILES) | Ki |
| --- | --- |
| CN1C(=O)[C@@H](NC(=O)c2nc3n(n2)C(c2ccccc2)CC3F)CCn2nccc21 (stereo partly drawn) [Example #26, 7-fluoro-5-phenyl-N-[(6S)-4-methyl-5-oxo-7,8-dihydro-6H-pyrazolo[1,5-a][1,3]diazepin-6-yl]-6,7-dihydro-5H-pyrrolo[1,2-b][1,2,4]triazole-2-carboxamide] | 49 nM |
| O=C(N[C@H]1CCc2cc(F)cc(F)c2NC1=O)c1nc2n(n1)C(c1ccccc1)CC2F (stereo partly drawn) [Example #27, 7-fluoro-5-phenyl-N-[(3S)-7,9-difluoro-2-oxo-1,3,4,5-tetrahydro-1-benzazepin-3-yl]-6,7-dihydro-5H-pyrrolo[1,2-b][1,2,4]triazole-2-carboxamide] | 14 nM |

Reference: patent US11072607B2, “Inhibitors of RIP1 kinase and methods of use thereof” (priority 2016, dated 2021)
